Species on record: Rattus norvegicus
Assay: DrugMatrix - Regimen: Daily Repeat
Format: toxicity, organism-based, Sprague-Dawley
Design: regimen Daily Repeat, gender Male, age 6-8 weeks
Conditions: in vivo, vehicle 100 % SALINE; for ABSOLUTE MONOCYTE / ABSOLUTE SEGMENTED NEUTROPHIL / BASOPHIL / EOSINOPHIL / ERYTHROCYTE COUNT / HEMATOCRIT / HEMOGLOBIN / LEUKOCYTE COUNT / LYMPHOCYTE / MEAN CORPUSCULAR HEMOGLOBIN / MEAN CORPUSCULAR HEMOGLOBIN CONCENTRATION / MEAN CORPUSCULAR VOLUME / MONOCYTE / NEUTROPHIL / PLATELET COUNT / ABSOLUTE BASOPHIL / ABSOLUTE EOSINOPHIL / ABSOLUTE LYMPHOCYTE: tissue Blood; for ALANINE AMINOTRANSFERASE / ALBUMIN / ALKALINE PHOSPHATASE / ASPARTATE AMINOTRANSFERASE / BLOOD UREA NITROGEN / CHLORIDE / CHOLESTEROL / CREATINE PHOSPHOKINASE / CREATININE / GLUCOSE / LACTATE DEHYDROGENASE / LIPASE / PHOSPHORUS / POTASSIUM / SODIUM / TOTAL BILIRUBIN / TOTAL PROTEIN / URIC ACID: tissue Plasma
[1] = ip, 160 mg/kg, 120 h, route intraperitoneal, dose level High, time 5 day
[2] = ip, 160 mg/kg, […], route intraperitoneal, dose level High, time 14 day
[3] = ip, 160 mg/kg, […], route intraperitoneal, dose level High, time 28 day
[4] = iv, 0 mg/kg, 72 h, dose level Control, time 3 day

NCC[C@H](O)C(=O)N[C@@H]1C[C@H](N)[C@@H](O[C@H]2O[C@H](CN)[C@@H](O)[C@H](O)[C@H]2O)[C@H](O)[C@H]1O[C@H]1O[C@H](CO)[C@@H](O)[C@H](N)[C@H]1O [AMIKACIN]
ABSOLUTE MONOCYTE [1]: 130 cells/µL
ABSOLUTE SEGMENTED NEUTROPHIL [1]: 830 cells/µL
BASOPHIL [1]: 0.52%
EOSINOPHIL [1]: 0.92%
ERYTHROCYTE COUNT [1]: 7.72 x10E6/uL
HEMATOCRIT [1]: 47.66%
HEMOGLOBIN [1]: 15.46 G/DL
LEUKOCYTE COUNT [1]: 8.36 x10E3/uL
LYMPHOCYTE [1]: 86.2%
MEAN CORPUSCULAR HEMOGLOBIN [1]: 20.02 pg
MEAN CORPUSCULAR HEMOGLOBIN CONCENTRATION [1]: 32.44 G/DL
MEAN CORPUSCULAR VOLUME [1]: 61.7 fL
MONOCYTE [1]: 1.62%
NEUTROPHIL [1]: 10.4%
PLATELET COUNT [1]: 1365.6 x10E3/uL
ALANINE AMINOTRANSFERASE [1]: 28.8 u/L
ALBUMIN [1]: 3.56 G/DL
ALKALINE PHOSPHATASE [1]: 209.4 u/L
ASPARTATE AMINOTRANSFERASE [1]: 80.6 u/L
BLOOD UREA NITROGEN [1]: 14.6 mg/dL
CHLORIDE [1]: 107.2 MEQ/L
CHOLESTEROL [1]: 62.4 mg/dL
CREATINE PHOSPHOKINASE [1]: 231.2 u/L
CREATININE [1]: 0.56 mg/dL
GLUCOSE [1]: 136.6 mg/dL
LACTATE DEHYDROGENASE [1]: 109.8 u/L
LIPASE [1]: 23.8 u/L
PHOSPHORUS [1]: 11.74 mg/dL
POTASSIUM [1]: 5.46 MEQ/L
SODIUM [1]: 147 MEQ/L
TOTAL BILIRUBIN [1]: 0.22 mg/dL
TOTAL PROTEIN [1]: 6.1 G/DL
URIC ACID [1]: 1.12 mg/dL
ABSOLUTE BASOPHIL [2]: 120 cells/µL
ABSOLUTE EOSINOPHIL [2]: 120 cells/µL
ABSOLUTE LYMPHOCYTE [2]: 10400 cells/µL
ABSOLUTE MONOCYTE [2]: 290 cells/µL
ABSOLUTE SEGMENTED NEUTROPHIL [2]: 1840 cells/µL
BASOPHIL [2]: 0.88%
EOSINOPHIL [2]: 0.88%
ERYTHROCYTE COUNT [2]: 7.68 x10E6/uL
HEMATOCRIT [2]: 45.32%
HEMOGLOBIN [2]: 14.88 G/DL
LEUKOCYTE COUNT [2]: 12.88 x10E3/uL
LYMPHOCYTE [2]: 80.34%
MEAN CORPUSCULAR HEMOGLOBIN [2]: 19.4 pg
MEAN CORPUSCULAR HEMOGLOBIN CONCENTRATION [2]: 32.88 G/DL
MEAN CORPUSCULAR VOLUME [2]: 59.02 fL
MONOCYTE [2]: 2.26%
NEUTROPHIL [2]: 15.14%
PLATELET COUNT [2]: 1513.4 x10E3/uL
ABSOLUTE BASOPHIL [3]: 97 cells/µL
ABSOLUTE EOSINOPHIL [3]: 87 cells/µL
ABSOLUTE LYMPHOCYTE [3]: 9100 cells/µL
ABSOLUTE MONOCYTE [3]: 180 cells/µL
ABSOLUTE SEGMENTED NEUTROPHIL [3]: 1340 cells/µL
BASOPHIL [3]: 0.88%
EOSINOPHIL [3]: 0.84%
ERYTHROCYTE COUNT [3]: 7.95 x10E6/uL
HEMATOCRIT [3]: 44.83%
HEMOGLOBIN [3]: 14.88 G/DL
LEUKOCYTE COUNT [3]: 10.86 x10E3/uL
LYMPHOCYTE [3]: 83.57%
MEAN CORPUSCULAR HEMOGLOBIN [3]: 18.72 pg
MEAN CORPUSCULAR HEMOGLOBIN CONCENTRATION [3]: 33.24 G/DL
MEAN CORPUSCULAR VOLUME [3]: 56.35 fL
MONOCYTE [3]: 1.64%
NEUTROPHIL [3]: 12.66%
PLATELET COUNT [3]: 1439.3 x10E3/uL
ALANINE AMINOTRANSFERASE [2]: 30.4 u/L
ALBUMIN [2]: 3.44 G/DL
ALKALINE PHOSPHATASE [2]: 190.6 u/L
ASPARTATE AMINOTRANSFERASE [2]: 79.6 u/L
BLOOD UREA NITROGEN [2]: 13 mg/dL
CHLORIDE [2]: 107.8 MEQ/L
CHOLESTEROL [2]: 70.8 mg/dL
CREATINE PHOSPHOKINASE [2]: 151.2 u/L
CREATININE [2]: 0.5 mg/dL
GLUCOSE [2]: 119.8 mg/dL
LACTATE DEHYDROGENASE [2]: 78.6 u/L
LIPASE [2]: 32 u/L
PHOSPHORUS [2]: 9.94 mg/dL
POTASSIUM [2]: 5.62 MEQ/L
SODIUM [2]: 150.6 MEQ/L
TOTAL BILIRUBIN [2]: 0.2 mg/dL
TOTAL PROTEIN [2]: 6.18 G/DL
URIC ACID [2]: 0.66 mg/dL
ALANINE AMINOTRANSFERASE [3]: 29.6 u/L
ALBUMIN [3]: 3.6 G/DL
ALKALINE PHOSPHATASE [3]: 128.89 u/L
ASPARTATE AMINOTRANSFERASE [3]: 84.7 u/L
BLOOD UREA NITROGEN [3]: 17.7 mg/dL
CHLORIDE [3]: 105.6 MEQ/L
CHOLESTEROL [3]: 62.1 mg/dL
CREATINE PHOSPHOKINASE [3]: 292.2 u/L
CREATININE [3]: 0.65 mg/dL
GLUCOSE [3]: 136.2 mg/dL
LACTATE DEHYDROGENASE [3]: 129.6 u/L
LIPASE [3]: 17.1 u/L
PHOSPHORUS [3]: 10.04 mg/dL
POTASSIUM [3]: 6.81 MEQ/L
SODIUM [3]: 152.5 MEQ/L
TOTAL BILIRUBIN [3]: 0.26 mg/dL
TOTAL PROTEIN [3]: 6.48 G/DL
URIC ACID [3]: 1.45 mg/dL
ABSOLUTE BASOPHIL [4]: 0 CELLS/uL
ABSOLUTE EOSINOPHIL [4]: 0 CELLS/uL
ABSOLUTE LYMPHOCYTE [4]: 7637.67 CELLS/uL
ABSOLUTE MONOCYTE [4]: 67.83 CELLS/uL
ABSOLUTE SEGMENTED NEUTROPHIL [4]: 661.17 CELLS/uL
BASOPHIL [4]: 0%
